Assay: xn = mol fraction of the nth substance listed
Details: 101 kPa, Liquid, Vibrating tube method

Cc1cccc2c1sc1c(C)cccc12 [4,6-dimethyldibenzo[b,d]thiophene] + CCCCCCCCCCCC
mass density [kg/m3]
Details | x1 = 0.0031 | x1 = 0.0053 | x1 = 0.0076
298.2 K | 746.102 | 746.82 | 747.546
313.2 K | 735.193 | 735.931 | 736.664

Cc1cccc2c1sc1ccccc12 [4-methyldibenzothiophene] + CCCCCCCCCCCC
mass density [kg/m3]
Details | x1 = 0.0062 | x1 = 0.012 | x1 = 0.018 | x1 = 0.0242 | x1 = 0.0302 | x1 = 0.0526 | x1 = 0.0863 | x1 = 0.133 | x1 = 0.2685
298.2 K | 747.197 | 749.098 | 751.069 | 753.104 | 755.131 | 762.606 | 774.082 | 790.24 | –
313.2 K | 736.26 | 738.169 | 740.129 | 742.156 | 744.204 | 751.621 | 763.057 | 777.581 | 827.245

c1ccc2c(c1)sc1ccccc12 [dibenzothiophene] + C1CCCCC1
298.2 K
Details | mass density [kg/m3]
x1 = 0.0025 | 775.392
x1 = 0.0045 | 776.667
x1 = 0.0114 | 780.726
x1 = 0.0224 | 787.439

c1ccc2c(c1)sc1ccccc12 [dibenzothiophene] + CC(C)CC(C)(C)C
mass density [kg/m3]
Details | x1 = 0.0025 | x1 = 0.003 | x1 = 0.005 | x1 = 0.0063 | x1 = 0.0127 | x1 = 0.0149
298.2 K | 689.019 | – | 690.292 | – | 694.21 | 695.329
313.2 K | 676.548 | 676.845 | 677.841 | 678.505 | – | 683.13

c1ccc2c(c1)sc1ccccc12 [dibenzothiophene] + CCCCC
298.2 K
Details | mass density [kg/m3]
x1 = 0.0042 | 624.932
x1 = 0.0077 | 627.957
x1 = 0.0112 | 630.962
x1 = 0.0158 | 634.865

c1ccc2c(c1)sc1ccccc12 [dibenzothiophene] + CCCCCC
298.2 K
Details | mass density [kg/m3]
x1 = 0.0097 | 661.714
x1 = 0.0147 | 665.156
x1 = 0.0174 | 667.026

c1ccc2c(c1)sc1ccccc12 [dibenzothiophene] + CCCCCCC
298.2 K
Details | mass density [kg/m3]
x1 = 0.0056 | 683.108
x1 = 0.0119 | 686.774
x1 = 0.0176 | 690.099
x1 = 0.0218 | 692.551

c1ccc2c(c1)sc1ccccc12 [dibenzothiophene] + CCCCCCCC
mass density [kg/m3]
Details | x1 = 0.0026 | x1 = 0.0049 | x1 = 0.0063 | x1 = 0.0127 | x1 = 0.0187 | x1 = 0.0252
298.2 K | 699.866 | 701.048 | 701.696 | 704.954 | 707.967 | 711.182
313.2 K | 687.657 | 688.882 | 689.525 | 692.813 | 695.851 | 699.1

c1ccc2c(c1)sc1ccccc12 [dibenzothiophene] + CCCCCCCCC
mass density [kg/m3]
Details | x1 = 0.0032 | x1 = 0.0057 | x1 = 0.0072 | x1 = 0.0147 | x1 = 0.0216 | x1 = 0.0287 | x1 = 0.0343
298.2 K | 715.374 | 716.447 | 717.097 | 720.427 | 723.475 | 726.668 | 729.068
313.2 K | 703.613 | 704.689 | 705.41 | 708.85 | 711.795 | 715.175 | 717.135

c1ccc2c(c1)sc1ccccc12 [dibenzothiophene] + CCCCCCCCCC
mass density [kg/m3]
Details | x1 = 0.0034 | x1 = 0.0061 | x1 = 0.0082 | x1 = 0.0162 | x1 = 0.0259 | x1 = 0.0314
298.2 K | 727.461 | 728.541 | 729.331 | 732.459 | 736.262 | 738.412
313.2 K | 716.064 | 717.143 | 717.957 | 721.088 | 724.901 | 727.044
